The text below walks through data of US20210122763A1, “OGA INHIBITOR COMPOUNDS” (Janssen Pharmaceutica NV, priority 2018, published 2021).

For assay [1], the target named is T1, OGA (Homo sapiens, UniProt O60502).
T1 construct: HEK293 cells inducible for P301L mutant human Tau (isoform 2N4R) were established at Janssen; endogenous in cells; host or cells: HEK293 cells inducible for P301L mutant human Tau (2N4R)
T1 sequence (O60502 1-916): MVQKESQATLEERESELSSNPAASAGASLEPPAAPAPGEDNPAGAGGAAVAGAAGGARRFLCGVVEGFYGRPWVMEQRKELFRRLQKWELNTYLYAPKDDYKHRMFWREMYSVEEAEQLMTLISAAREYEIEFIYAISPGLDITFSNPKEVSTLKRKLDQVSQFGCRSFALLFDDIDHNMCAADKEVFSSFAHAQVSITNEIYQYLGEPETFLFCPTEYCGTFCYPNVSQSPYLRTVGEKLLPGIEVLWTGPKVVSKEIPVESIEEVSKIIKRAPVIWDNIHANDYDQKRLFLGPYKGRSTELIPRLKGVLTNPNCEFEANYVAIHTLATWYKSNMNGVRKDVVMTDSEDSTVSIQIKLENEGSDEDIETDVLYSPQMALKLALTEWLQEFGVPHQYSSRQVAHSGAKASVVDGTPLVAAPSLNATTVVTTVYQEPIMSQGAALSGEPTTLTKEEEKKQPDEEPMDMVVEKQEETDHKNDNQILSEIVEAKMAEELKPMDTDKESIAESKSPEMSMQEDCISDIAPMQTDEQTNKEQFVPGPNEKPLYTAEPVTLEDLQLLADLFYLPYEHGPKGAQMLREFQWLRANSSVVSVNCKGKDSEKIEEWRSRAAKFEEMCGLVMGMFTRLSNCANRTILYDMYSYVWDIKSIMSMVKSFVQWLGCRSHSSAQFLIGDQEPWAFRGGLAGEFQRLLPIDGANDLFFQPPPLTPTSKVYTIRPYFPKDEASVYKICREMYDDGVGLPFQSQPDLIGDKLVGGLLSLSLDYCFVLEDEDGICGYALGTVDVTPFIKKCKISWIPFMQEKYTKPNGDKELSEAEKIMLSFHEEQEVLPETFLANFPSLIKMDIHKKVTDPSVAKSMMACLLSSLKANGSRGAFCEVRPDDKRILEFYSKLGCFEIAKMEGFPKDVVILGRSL
Nature of the assay: OGA cellular assay (ICC detection of O-GlcNAcylated proteins in HEK293 cells inducible for P301L mutant human Tau). The class given is cell-based. As to conditions: 6 hours incubation; for Emax: HEK293, HEK293 cells inducible for P301L mutant human Tau; for EC50: read-out: Cellular hOGA, pEC50 (converted). The protocol:
HEK293 cells inducible for P301L mutant human Tau (isoform 2N4R) were established at Janssen. Thiamet-G was used for both plate validation (high control) and as reference compound (reference EC50 assay validation). OGA inhibition is evaluated through the immunocytochemical (ICC) detection of O-GlcNAcylated proteins by the use of a monoclonal antibody (CTD110.6; Cell Signaling, #9875) detecting 0-GlcNAcylated residues as previously described (Dorfmueller et al. 2010 Chemistry & biology, 17:1250). Inhibition of OGA will result in an increase of 0-GlcNAcylated protein levels resulting in an increased signal in the experiment. Cell nuclei are stained with Hoechst to give a cell culture quality control and a rough estimate of immediate compounds toxicity, if any. ICC pictures are imaged with a Perkin Elmer Opera Phenix plate microscope and quantified with the provided software Perkin Elmer Harmony 4.1.
Cells were propagated in DMEM high Glucose (Sigma, #D5796) following standard procedures. 2 days before the cell assay cells are split, counted and seeded in Poly-D-Lysine (PDL) coated 96-wells (Greiner, #655946) plate at a cell density of 12,000 cells per cm^2 (4,000 cells per well) in 100p of Assay Medium (Low Glucose medium is used to reduce basal levels of GlcNAcylation) (Park et al. 2014 The Journal of biological chemistry 289:13519). At the day of compound test medium from assay plates was removed and replenished with 90 μl of fresh Assay Medium. 10 μl of compounds at a 10 fold final concentration were added to the wells. Plates were centrifuged shortly before incubation in the cell incubator for 6 hours. DMSO concentration was set to 0.2%. Medium is discarded by applying vacuum. For staining of cells medium was removed and cells washed once with 100 μl D-PBS (Sigma, #D8537). From next step onwards unless other stated assay volume was always 50p and incubation was performed without agitation and at room temperature. Cells were fixed in 50 μl of a 4% paraformaldehyde (PFA, Alpha aesar, #043368) PBS solution for 15 minutes at room temperature. […] Before analysis samples were washed 2 times manually for 5 minutes in ICC base buffer.
Imaging is performed using Perkin Elmer Phenix Opera using a water 20× objective and recording 9 fields per well. Intensity readout at 488 nm is used as a measure of O-GlcNAcylation level of total proteins in wells. To assess potential toxicity of compounds nuclei were counted using the Hoechst staining. IC50-values are calculated using parametric non-linear regression model fitting. As a maximum inhibition Thiamet G at a 200 uM concentration is present on each plate. In addition, a concentration response of Thiamet G is calculated on each plate.

For assay [2], the target named is T2, recombinant human Meningioma Expressed Antigen 5 (MGEA5), also referred to as O-GlcNAcase (OGA) (Homo sapiens, UniProt O60502).
T2 construct: Full length OGA enzyme was purchased at OriGene (cat #TP322411); purchased OriGene TP322411
T2 sequence (O60502 1-916): T1 sequence (O60502 1-916)
Nature of the assay: OGA biochemical assay (inhibition of FM-GlcNAc hydrolysis, fluorescence). As to conditions: for Emax: read-out: Enzymatic Emax (%); for IC50: read-out: Enzymatic hOGA, pIC50 (converted). An excerpt:
The assay is based on the inhibition of the hydrolysis of fluorescein mono-B-D-N-Acetyl-Glucosamine (FM-GcNAc) (Mariappa et al. 2015, Biochem J470:255) by the recombinant human Meningioma Expressed Antigen 5 (MGEA5), also referred to as O-GlcNAcase (OGA). The hydrolysis FM-GlcNAc (Marker Gene technologies, cat #M1485) results in the formation of B-D-N-glucosamineacetate and fluorescein. The fluorescence of the latter can be measured at excitation wavelength 485 nm and emission wavelength 538 nm. An increase in enzyme activity results in anincrease in fluorescence signal. Full length OGA enzyme was purchased at OriGene (cat #TP322411). The enzyme was stored in 25 mM Tris.HCl, pH 7.3, 100 mM glycine, 10% glycerol at −20° C. Thiamet G and GlcNAcStatin were tested as reference compounds (Yuzwa et al. 2008 Nature Chemical Biology 4:483; Yuzwa et al. 2012 Nature Chemical Biology 8:393). The assay was performed in 200 mM Citrate/phosphate buffer supplemented with 0.005% Tween-20. 35.6 g Na2HPO4 2H2O (Sigma, #C0759) were dissolved in 1 L water to obtain a 200 mM solution. 19.2 g citric acid (Merck, #1.06580) was dissolved in 1 L water to obtain a 100 mM solution. pH of the sodiumphosphate solution was adjusted with the citric acid solution to 7.2. The buffer to stop the reaction consists of a 500 mM Carbonate buffer, pH 11.0. 734 mg FM-GlcNAc were dissolved in 5.48 mL DMSO to obtain a 250 mM solution and was stored at −20° C. OGA was used at a 2 nM concentration and FM-GcNAc at a 100 uM final concentration. Dilutions were prepared in assay buffer.
50 nl of a compound dissolved in DMSO was dispensed on Black Proxiplate™ 384 Plus Assay plates (Perkin Elmer, #6008269) and 3 μl fl-OGA enzyme mix added subsequently. Plates were pre-incubated for 60 min at room temperature and then 2 μl FM-GlcNAc substrate mix added.
Plates were briefly centrifuged for 1 min at 1000 rpm and incubate at room temperature for 6 h. To stop the reaction 5 μl STOP buffer were added and plates centrifuge again 1 min at 1000 rpm. Fluorescence was quantified in the Thermo Scientific Fluoroskan Ascent or the PerkinElmer EnVision with excitation wavelength 485 nm and emission wavelength 538 nm.
For analysis a best-fit curve is fitted by a minimum sum of squares method. From this an IC50 value and Hill coefficient was obtained. High control (no inhibitor) and low control (saturating concentrations of standard inhibitor) were used to define the minimum and maximum values.

[3] abbreviates: HEK293 cells inducible for P301L mutant human Tau.

For orientation: Emax means the size of the effect at its maximum, as opposed to the concentration needed.

For the molecule `Cc1cc(OC2CCN(C(C)c3nc4nc(C)sc4cc3F)CC2)cc(C)n1` (stereo not drawn) [Compound 32], in assay [1] (maximum = Thiamet G 200 uM), the Emax came out at 72%. Further, in assay [1] (setting [3]), the EC50 was 79.4 nM. For the same molecule, in assay [2], the Emax was 100% and the IC50 was 15.8 nM.
For `COc1cc(OC2CCN(C(C)c3ccc4c(n3)OCCO4)CC2)cc(C)n1` (stereo not drawn) [Compound 14] the same measures were 82%, 126 nM, 100% and 20 nM.
Consider `Cc1cc(OC2CCN(C(C)c3ccc4c(n3)OCCO4)CC2)c(F)c(C)n1` (stereo not drawn) [Compound 121], for which the Emax in assay [1] (maximum = Thiamet G 200 uM) turned out to be 59%. The EC50 in assay [1] (setting [3]) was 398 nM. Besides, in assay [2], the Emax worked out at 96% and the IC50 is 100 nM.
Take `CC(c1ccc2c(n1)OCCO2)N1CCC(Oc2cnc(C(F)(F)F)cn2)CC1` (stereo not drawn) [Compound 114]: the Emax in assay [1] (maximum = Thiamet G 200 uM) was determined as 31%. Besides, the EC50 in assay [1] (setting [3]) is greater than 1000 nM. Moreover, in assay [2], the Emax was 97% and the IC50 was 316 nM.
For `Cc1cc(COC2CCN(C(C)c3nc4c(cc3F)OCCO4)CC2)cc(C)n1` (stereo not drawn) [Compound 159] the same measures were 75%, 63.1 nM, 94% and 12.6 nM.
For `Cc1cnnc(OC2CCN(C(C)c3ccc4c(n3)OCCO4)CC2)c1` (stereo not drawn) [Compound 77], in assay [1] (maximum = Thiamet G 200 uM), the Emax amounted to 35%. Further, in assay [1] (setting [3]), the EC50 is greater than 1000 nM. Moreover, in assay [2], the Emax turned out to be 97% and the IC50 is 200 nM.
Consider `CC(c1ccc2c(n1)OCCO2)N1CCC(Oc2cc[nH]c(=O)c2)CC1` (stereo not drawn) [Compound 93], for which the Emax in assay [1] (maximum = Thiamet G 200 uM) was 34%. Moreover, in assay [1] (setting [3]), the EC50 was greater than 1000 nM. In addition, in assay [2], the Emax was 98% and the IC50 is 251 nM.
In the case of `Cc1cccnc1OC1CCN(C(C)c2ccc3c(n2)OCCO3)CC1` (stereo not drawn) [Compound 70], in assay [1] (maximum = Thiamet G 200 uM), the Emax came out at 46%. For the same molecule, the EC50 in assay [1] (setting [3]) is greater than 1000 nM. Also, in assay [2], the Emax worked out at 98% and the IC50 was 398 nM.
Regarding `Cc1cc(OC2CCN(C(C)c3ccc4c(n3)OCCO4)CC2)cc(C)n1` (single isomer, unassigned) [Compound 2], in assay [1] (HEK293 cells inducible for P301L mutant human Tau, maximum = Thiamet G 200 uM), the “Cellular Emax (%)” value is −14%. Further, in assay [1] (setting [3]), the EC50 was greater than 1000 nM. In assay [2], the “Enzymatic Emax (%)” value came to 29% and the IC50 is greater than 10000 nM.
Regarding `COc1cc(OC2CCN(C(C)c3ccc4c(n3)OCCO4)CC2)ncc1C#N` (stereo not drawn) [Compound 103], the Emax in assay [1] (maximum = Thiamet G 200 uM) worked out at 52%; in assay [2], 97%. In addition, the IC50 in assay [2] was 79.4 nM.
Take `Cc1ccc(OC2CCN(C(C)c3nc4c(cc3F)OCCO4)CC2)cn1` (stereo not drawn) [Compound 94]: the Emax in assay [1] (maximum = Thiamet G 200 uM) was found to be 82%; in assay [2], 96%. The EC50 in assay [1] (setting [3]) was 95.5 nM. For the same molecule, the IC50 in assay [2] is 10 nM.
For `Cc1cc(OC2CCN([C@@H](C)c3nc4c(cc3F)OCCO4)CC2)cc(C)n1` (single isomer, unassigned) [Compound 149] the same measures were -2%, 58%, greater than 1000 nM and 6310 nM.
As for `Cc1cc(OC2CCN([C@H](C)c3ccc4c(n3)OCC4)CC2)cc(C)n1` (single isomer, unassigned) [Compound 61], the Emax in assay [1] (maximum = Thiamet G 200 uM) is 87%. The EC50 in assay [1] (setting [3]) was 79.4 nM. In assay [2], the Emax was 95% and the IC50 is 15.8 nM.
For `COc1cc(OC2CCN(C(C)c3nc4nc(C)sc4cc3F)CC2)cc(C)n1` (stereo not drawn) [Compound 79], in that order: 72%, 39.8 nM, 101% and 3.16 nM.
For `Cc1cc(OC2CCN(C(C)c3nc4c(cc3F)OCCO4)CC2)cc(C#N)n1` (stereo not drawn) [Compound 128], in that order: 95%, 50.1 nM, 102% and 7.94 nM.
For `CC(c1ccc2c(n1)OCCO2)N1CCC(COc2ccc(C(F)(F)F)cn2)CC1` (stereo not drawn) [Compound 43], in that order: 25%, greater than 1000 nM, 96% and 501 nM.
With `CC(c1ccc2c(n1)OCCO2)N1CCC(Oc2cnc(Cl)nc2)CC1` (stereo not drawn) [Compound 67], the Emax was 60% in assay [1] (maximum = Thiamet G 200 uM) and 102% in assay [2]. Moreover, the EC50 in assay [1] (setting [3]) was 631 nM. For the same molecule, in assay [2], the IC50 was 126 nM.
`Cc1cc(OC2CCN(C(C)c3ccc4c(c3)OCCO4)CC2)cc(C)n1` (stereo not drawn) [Compound 25]: the Emax in assay [1] (maximum = Thiamet G 200 uM) worked out at 56%. In addition, the EC50 in assay [1] (setting [3]) is 631 nM. Further, in assay [2], the Emax came to 96% and the IC50 is 501 nM.
For `Cc1cc(OC2CCN(C(C)c3nc4c(cc3F)OCCO4)CC2)ccn1` (stereo not drawn) [Compound 162] the same measures were 83%, 63.1 nM, 98% and 12.6 nM.
